Data as given in paper PMC2359919, “Molecular targeting of retinoic acid metabolism in neuroblastoma: the role of the CYP26 inhibitor R116010 in vitro and in vivo” (British Journal of Cancer, 2007).

Columns and labels:
[1] = test system: CYP26A1; assay: CYP26A1 mRNA expression in neuroblastoma cells, real-time PCR; format: cell-based, human; settings: 0.1 μM retinoid, 24 h; panel of neuroblastoma cell lines; relative to SH-SY5Y cells treated with 0.01 μM ATRA
Method: (§1) SH-SY5Y, SH-EP (N- and S-type cells respectively derived from the parental line SK-N-SH), LAN6, IMR-32, NGP and GIMEN neuroblastoma cell lines were cultured routinely in RPMI 1640 medium containing fetal calf serum (10%) and L-glutamine (2 mM). Cells were grown at 37°C in a humidified incubator containing 5% CO2.
(§2) 13-cis-Retinoic acid and ATRA were dissolved in DMSO and diluted in cell culture medium to obtain final concentrations of 0.1–10 μM. The final concentration of DMSO in all cases was <0.2%. All experiments were performed in dim light and tubes containing retinoids were wrapped in aluminium foil.
CYP26 short hairpin RNAs (shRNAs) were generated using the siSTRIKE U6 Hairpin Cloning System (Promega, Southampton, UK). The CYP26A1, B1 and Ctrl siRNA sequences were designed using Promega software. […]
(§3) RNA was reverse-transcribed using Promega's Reverse Transcription System according to the manufacturer's instructions, using random hexamer primers. […] As internal standard, β-actin was measured simultaneously using the endogenous control assay provided by Applied Biosystems. […] Standard curves were generated from serial dilutions of cDNA prepared from cells treated with ATRA (1 μM) and the data were analysed using the GeneAmp Sequence Detection System software. CYP26C1 expression was analysed as described previously ([Taimi et al, 2004]).

[2] = test system: CYP26A1; assay: CYP26A1 expression in SH-SY5Y xenograft tumours; format: in vivo, CD-1 nude mice
Method: All in vivo experiments were approved by the relevant institutional animal welfare committees, and performed according to national law. Female athymic nude mice (CD-1 nu/nu, Charles River) used for antitumour studies were maintained and handled in isolators, under specific pathogen-free conditions, at 24°C with a 12 h light, 12 h dark cycle. Tumours were generated by implantation of SH-SY5Y cells subcutaneously (s.c.) into one flank of CD-1 nude mice (1 × 10^7 cells per animal).
Treatments began when the tumours were between 7 and 10 mm in length and breadth. Retinoids and R116010 were initially dissolved in DMSO before 10- or 20-fold dilutions in PBS, respectively. For pharmacokinetic studies, the animals were dosed with ATRA or 13cisRA (each 100 mg kg^−1) orally for 0.5, 2 and 6 h. […]
as §3

[3] = test system: MYCN; assay: MYCN mRNA expression in MYCN-amplified NGP cells, real-time PCR; format: cell-based, human
Method: as §1, §2
as §3, with “primers. Real-time PCR was performed on 20 ng cDNA using TaqMan gene expression products for human CYP26A1, CYP26B1, CRABPII, RARβ and MYCN in combination with the TaqMan Universal PCR master mix (Applied Biosystems, Warrington, UK).” for “primers.”

[4] = test system: RARβ; assay: RARβ mRNA expression in SH-SY5Y cells, real-time PCR; format: cell-based, human; settings: ATRA 0.01 μM or 13cisRA 0.1 μM with R116010 1 μM vs retinoid alone, 24 h
Method: as §1, §2
as §3, with “primers. Real-time PCR was performed on 20 ng cDNA using TaqMan gene expression products for human CYP26A1, CYP26B1, CRABPII, RARβ and MYCN in combination with the TaqMan Universal PCR master mix (Applied Biosystems, Warrington, UK).” for “primers.”

SMILES | CYP26A1 induction [1] | Increase in CYP26A1 expression in tumours ([2]; 13cisRA with two doses of R116010 at 2.5 mg kg^−1 vs 13cisRA alone, individual animals, data not shown) | Effect on CYP26A1 expression in tumours ([2]; R116010 prior ATRA) | Effect on downregulation of MYCN expression by ATRA or 13cisRA ([3]; ATRA or 13cisRA 0.1 μM with R116010 1 μM vs retinoid alone) | Effect on MYCN expression, R116010 alone ([3]; R116010 alone (1 μM)) | Effect on RARβ expression, co-incubation with retinoid [4]
CC1=C(/C=C/C(C)=C/C=C/C(C)=C/C(=O)O)C(C)(C)CCC1 [ATRA, all-trans-retinoic acid] | induced to various extents in SH-SY5Y, LAN6 and NGP cells | – | – | – | – | –
C[C@@H]([C@H](c1ccc(Nc2nc3ccccc3s2)cc1)n1ccnc1)N(C)C [R116010] | – | 4- to 20 fold | not significantly different | enhanced | small but significant increase | significant increases
